Data as given in patent publication US8883782B2, “Spiro-tetracyclic ring compounds as beta-secretase modulators and methods of use” (Amgen Inc., priority 2010, dated 2014).
Where two headings read alike, the source gives them in different places.

How the values were obtained:
[1] = target: Beta Secretase enzyme (BACE) (Homo sapiens, UniProt P56817); experiment: In vitro enzymatic BACE FRET (fluorescence resonance energy transfer) assay; assay type: biochemical; details: average IC50, enzyme assay; read-out: BACE 1 FRET assay
Beta Secretase enzyme (BACE), sequence (P56817 46-501, species assumed): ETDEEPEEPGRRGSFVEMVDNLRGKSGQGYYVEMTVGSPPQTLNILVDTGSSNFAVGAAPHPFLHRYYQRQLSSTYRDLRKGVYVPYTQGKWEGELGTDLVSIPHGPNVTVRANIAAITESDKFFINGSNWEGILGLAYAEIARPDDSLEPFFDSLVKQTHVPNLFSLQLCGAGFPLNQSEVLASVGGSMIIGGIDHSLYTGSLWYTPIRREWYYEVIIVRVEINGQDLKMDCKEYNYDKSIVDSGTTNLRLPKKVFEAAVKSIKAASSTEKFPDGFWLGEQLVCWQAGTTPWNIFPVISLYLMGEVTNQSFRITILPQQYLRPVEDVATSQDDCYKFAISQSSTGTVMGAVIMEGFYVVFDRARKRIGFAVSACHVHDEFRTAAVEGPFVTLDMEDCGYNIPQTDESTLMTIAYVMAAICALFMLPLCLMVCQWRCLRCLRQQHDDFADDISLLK
Procedure, shortened: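 Buffer 0.05 M acetate pH 4.2, 10% DMSO final, 100 uM genapol (sub-CMC); start with 50 nM FRET substrate; 1 h incubation; Tris stop; fluorescence read.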

[2] = test system: Aβ40 in conditioned medium of cells stably expressing Amyloid Precursor Protein (APP); experiment: In vitro BACE cell-based assay (Aβ40 in conditioned medium, sandwich ELISA); details: Homo sapiens, read-out: HEK cell assay
Method: In Vitro BACE Cell-Based Assay
The cell-based assay measures inhibition or reduction of Aβ40 in conditioned medium of test compound treated cells expressing amyloid precursor protein.
Cells stably expressing Amyloid Precursor Protein (APP) were plated at a density of 40K cells/well in 96 well plates (Costar). The cells were cultivated for 24 hours at 37° C. and 5% CO2 in DMEM supplemented with 10% FBS. The test compounds were then added to cells in 10-point dose response concentrations with the starting concentration being either 100 μM or 10 μM. The compounds were diluted from stock solutions in DMSO and the final DMSO concentration of the test compounds on cells was 0.1%. […] The IC50 of the compound was calculated from the percent of control or percent inhibition of Aβ 40 as a function of the concentration of the test compound.
The sandwich ELISA to detect Aβ 40 was performed in 96 well microtiter plates, which were pre-treated with goat anti-rabbit IgG (Pierce). The capture and detecting antibody pair that were used to detect Aβ 40 from cell supernatants were affinity purified pAb40 (Biosource) and biotinylated 6E10 (Signet Labs Inc.), respectively. The optimal concentration for the pAb40 antibody was 3 μg/ml in Superblock/TBS (Pierce) that was supplemented with 0.05% Tween 20 (Sigma).
Cellular supernatants were incubated with the capture antibody for 3 h at 4° C., followed by 3 wash steps in TBS-tween (0.05%). The detecting antibody incubation was for 2 h at 4° C., again followed by the wash steps as described previously. The final readout of the ELISA is Time-Resolved Fluorescence (counts per minute) using Delfia reagents Streptavidin-Europium and Enhancement solutions (Perkin Elmer) and the Victor 2 multilabel counter (Perkin Elmer).

[3] = HEK293, average IC50, HEK cells

Work on `COCC1SC(N)=N[C@@]12c1cc(-c3cccnc3F)ccc1Oc1cnc(-c3ccnc(F)c3)cc12` (stereo partly drawn) [Example 1094, (5R)-7-(2-fluoro-3-pyridinyl)-3-(2-fluoro-4-pyridinyl)-5′-(methoxymethyl)spiro[chromeno[2,3-c]pyridine-5,4′-[1,3]thiazol]-2′-amine] yielded an IC50 [1] of 4.3 nM and an IC50 [2, 3] of 128 nM.

Molecule `CC#Cc1cnc(F)c(-c2ccc3c(c2)[C@@]2(COC(N)=N2)c2cc(C#CC4(C)COC4)cnc2O3)c1` [Example 955, (5S)-7-(2-fluoro-5-(1-propyn-1-yl)-3-pyridinyl)-3-((3-methyl-3-oxetanyl)ethynyl)spiro[chromeno[2,3-b]pyridine-5,4′-[1,3]oxazol]-2′-amine] has an IC50 [1] of 0.5 nM and an IC50 [2, 3] of 2 nM.

`CC(C)(C#N)COc1cc(F)c2c(c1)[C@]1(CSC(N)=N1)c1cc(-c3cccnc3F)ccc1O2` [Example 800, 3-(((4S)-2-amino-4′-fluoro-7′-(2-fluoro-3-pyridinyl)spiro[1,3-thiazole-4,9′-xanthen]-2′-yl)oxy)-2,2-dimethylpropanenitrile] gave an IC50 [1] of 0.4 nM and an IC50 ([2]; HEK293, average IC50) of 20 nM.

`NC1=N[C@@]2(CO1)c1cc(-c3cccnc3F)ccc1Oc1c2cc(N2CCOCC2)nc1F` [Example 892, (5S)-1-fluoro-7-(2-fluoro-3-pyridinyl)-3-(4-morpholinyl)spiro[chromeno[2,3-c]pyridine-5,4′-[1,3]oxazol]-2′-amine] showed an IC50 [1] of 0.3 nM and an IC50 [2, 3] of 5 nM.

Work on `CC1(C)CC(=O)N(c2cc(F)c3c(c2)[C@]2(COC(N)=N2)c2cc(-c4cccnc4)ccc2O3)C1` [Example 798, 1-((4S)-2-amino-4′-fluoro-7′-(3-pyridinyl)spiro[1,3-oxazole-4,9′-xanthen]-2′-yl)-4,4-dimethyl-2-pyrrolidinone] yielded an IC50 [1] of 1.4 nM and an IC50 ([2]; HEK293, average IC50) of 8 nM.

Molecule `CC1(C#Cc2cc3c(cc2F)Oc2ccc(-c4cccnc4F)cc2[C@@]32COC(N)=N2)COC1` [Example 312, (4S)-3′-fluoro-7′-(2-fluoro-3-pyridinyl)-2′-((3-methyl-3-oxetanyl)ethynyl)spiro[1,3-oxazole-4,9′-xanthen]-2-amine] has an IC50 [1] of 2.5 nM and an IC50 ([2]; HEK293, average IC50) of 30.3 nM.

In the case of `COCC#Cc1cncc(-c2ccc3c(c2)C2(COC(N)=N2)c2cc(OC)cc(F)c2O3)c1` (stereo not shown) [Example 843, 4′-fluoro-2′-methoxy-7′-(5-(3-methoxy-1-propyn-1-yl)-3-pyridinyl)spiro[1,3-oxazole-4,9′-xanthen]-2-amine], the IC50 [1] is reported as 8.8 nM and the IC50 ([2]; HEK293, average IC50) is reported as 57 nM.

`NC1=N[C@@]2(CO1)c1cc(-c3cccnc3F)ccc1Oc1nc(F)c(N3CCOCC3)cc12` [Example 714, (S)-2-fluoro-7-(2-fluoropyridin-3-yl)-3-morpholino-5′H-spiro[chromeno[2,3-b]pyridine-5,4′-oxazol]-2′-amine] gave an IC50 [1] of 3.6 nM and an IC50 [2, 3] of 55 nM.

With `N#Cc1cncc(-c2ccc3c(c2)[C@@]2(COC(N)=N2)c2cc(C4=CCOCC4)cc(F)c2O3)c1` [Example 557, 5-((4S)-2-amino-7′-(3,6-dihydro-2H-pyran-4-yl)-5′-fluorospiro[1,3-oxazole-4,9′-xanthen]-2′-yl)-3-pyridinecarbonitrile] the IC50 [1] was 0.7 nM and the IC50 [2, 3] was 3.7 nM.

`CC1(C)CN(c2cnc3c(c2)[C@]2(COC(N)=N2)c2cc(C#CC4CC4)ccc2O3)CCO1` [Example 179, (5S)-7-(cyclopropylethynyl)-3-(2,2-dimethyl-4-morpholinyl)spiro[chromeno[2,3-b]pyridine-5,4′-[1,3]oxazol]-2′-amine] gave an IC50 [1] of 11.1 nM and an IC50 ([2]; HEK293, average IC50) of 64.1 nM.

`Cc1ccn(-c2cnc3c(c2)[C@]2(COC(N)=N2)c2cc(-c4cccnc4)ccc2O3)n1` [Example 1022, (5S)-3-(3-methyl-1H-pyrazol-1-yl)-7-(3-pyridinyl)spiro[chromeno[2,3-b]pyridine-5,4′-[1,3]oxazol]-2′-amine] was tested, and the IC50 [1] was 7.2 nM and the IC50 ([2]; HEK293, average IC50) was 106 nM.

In the case of `NC1=N[C@@]2(CS1)c1cc(-c3ccc(F)nc3)ccc1Oc1ncc(C3=CCOCC3)cc12` [Example 966, (5S)-3-(3,6-dihydro-2H-pyran-4-yl)-7-(6-fluoro-3-pyridinyl)spiro[chromeno[2,3-b]pyridine-5,4′-[1,3]thiazol]-2′-amine], the IC50 [1] is reported as 2.2 nM and the IC50 [2, 3] is reported as 32 nM.

`N#Cc1cccc(-c2ccc3c(c2)[C@@]2(COC(N)=N2)c2cc(C4=CCOCC4)ccc2O3)c1` [Example 195, 3-((4R)-2-amino-7′-(3,6-dihydro-2H-pyran-4-yl)spiro[1,3-oxazole-4,9′-xanthen]-2′-yl)benzonitrile] gave an IC50 [1] of 9.4 nM and an IC50 ([2]; HEK293, average IC50) of 63.1 nM.

Molecule `NC1=N[C@@]2(CO1)c1cc(-c3cccnc3)ccc1Oc1c2cc(-c2cccnc2)nc1F` [Example 494, (5S)-1-fluoro-3,7-di-3-pyridinylspiro[chromeno[2,3-c]pyridine-5,4′-[1,3]oxazol]-2′-amine] has an IC50 [1] of 0.5 nM and an IC50 [2, 3] of 5.3 nM.

Work on `CC(C)(F)COc1cc(F)c2c(c1)[C@]1(COC(N)=N1)c1cc(-c3ccc(F)nc3)ccc1O2` [Example 259, (4S)-4′-fluoro-2′-(2-fluoro-2-methylpropoxy)-7′-(6-fluoro-3-pyridinyl)spiro[1,3-oxazole-4,9′-xanthen]-2-amine] yielded an IC50 [1] of 2.7 nM and an IC50 ([2]; HEK293, average IC50) of 19.8 nM.

With `NC1=N[C@@]2(CO1)c1cc(-c3cccnc3F)ncc1Oc1c(F)cc(C3=CCOCC3)cc12` [Example 306, (5S)-7-(3,6-dihydro-2H-pyran-4-yl)-9-fluoro-3-(2-fluoro-3-pyridinyl)spiro[chromeno[2,3-c]pyridine-5,4′-[1,3]oxazol]-2′-amine] the IC50 [1] was 1.5 nM and the IC50 ([2]; HEK293, average IC50) was 56.7 nM.

`NC1=N[C@@]2(CO1)c1cc(-c3cccnc3F)ccc1Oc1ncc(N3CCC(F)(F)CC3)cc12` [Example 478, (5S)-3-(4,4-difluoro-1-piperidinyl)-7-(2-fluoro-3-pyridinyl)spiro[chromeno[2,3-b]pyridine-5,4′-[1,3]oxazol]-2′-amine] gave an IC50 [1] of 2.1 nM and an IC50 [2, 3] of 14.3 nM.

`NC1=N[C@]2(CO1)c1cc(-c3cccnc3F)c(F)cc1Oc1c(F)cc(N3CCOCC3)cc12` [Example 870, (4R)-3′,5′-difluoro-2′-(2-fluoro-3-pyridinyl)-7′-(4-morpholinyl)spiro[1,3-oxazole-4,9′-xanthen]-2-amine] was tested, and the IC50 [1] was 157 nM and the IC50 [2, 3] was 6570 nM.

Molecule `NC1=N[C@@]2(CO1)c1cc(-c3cccnc3F)ccc1Oc1ncc(-c3cccnc3F)cc12` [Example 732, (5S)-3,7-bis(2-fluoro-3-pyridinyl)spiro[chromeno[2,3-b]pyridine-5,4′-[1,3]oxazol]-2′-amine] has an IC50 [1] of 2 nM and an IC50 ([2]; HEK293, average IC50) of 3 nM.

`CC#Cc1cncc(-c2ccc3c(c2)[C@@]2(CSC(N)=N2)c2cc(-c4ncccn4)cnc2O3)c1` [Example 789, (5S)-7-(5-(1-propyn-1-yl)-3-pyridinyl)-3-(2-pyrimidinyl)spiro[chromeno[2,3-b]pyridine-5,4′-[1,3]thiazol]-2′-amine] showed an IC50 [1] of 2.2 nM and an IC50 ([2]; HEK293, average IC50) of 9 nM.

Work on `NC1=N[C@@]2(CO1)c1cc(-c3ccc(F)nc3)ccc1Oc1c(F)cc(-c3ncccn3)cc12` [Example 289, (4S)-4′-fluoro-7′-(6-fluoro-3-pyridinyl)-2′-(2-pyrimidinyl)spiro[1,3-oxazole-4,9′-xanthen]-2-amine] yielded an IC50 [1] of 2.5 nM and an IC50 ([2]; HEK293, average IC50) of 14.6 nM.

`COc1ccc(OC)c(-c2ccc3c(c2)[C@@]2(COC(N)=N2)c2cc(C4=CCOCC4)cnc2O3)c1` [Example 502, (5S)-3-(3,6-dihydro-2H-pyran-4-yl)-7-(2,5-dimethoxyphenyl)spiro[chromeno[2,3-b]pyridine-5,4′-[1,3]oxazol]-2′-amine] gave an IC50 [1] of 2.5 nM and an IC50 [2, 3] of 12.7 nM.

`NC1=N[C@@]2(CO1)c1cc(-c3cccnc3F)ccc1Oc1c(F)cc(N3CC4(CCCO4)C3)cc12` [Example 855, (4S)-4′-fluoro-7′-(2-fluoro-3-pyridinyl)-2′-(5-oxa-2-azaspiro[3.4]oct-2-yl)spiro[1,3-oxazole-4,9′-xanthen]-2-amine] was tested, and the IC50 [1] was 0.7 nM and the IC50 [2, 3] was 2 nM.

Molecule `CC1(C#Cc2cnc3c(c2)[C@]2(CSC(N)=N2)c2cc(-c4ccc(F)c(C#N)c4)ccc2O3)COC1` [Example 785, 5-((5S)-2′-amino-3-((3-methyl-3-oxetanyl)ethynyl)spiro[chromeno[2,3-b]pyridine-5,4′-[1,3]thiazol]-7-yl)-2-fluorobenzonitrile] has an IC50 [1] of 1.6 nM and an IC50 ([2]; HEK293, average IC50) of 13 nM.

`COc1cc(F)c2c(c1)[C@]1(CSC(N)=N1)c1cc(Br)ccc1O2` [Example 606, (4S)-7′-bromo-4′-fluoro-2′-methoxyspiro[1,3-thiazole-4,9′-xanthen]-2-amine] showed an IC50 [1] of 813 nM and an IC50 [2, 3] of 279 nM.

For `COc1cc(F)c2c(c1)[C@]1(CSC(N)=N1)c1cc(-c3cccnc3)ccc1O2` [Example 650, (4S)-4′-fluoro-2′-methoxy-7′-(3-pyridinyl)spiro[1,3-thiazole-4,9′-xanthen]-2-amine], the IC50 [1] was 9 nM and the IC50 [2, 3] was 251 nM.
